Measured values from paper PMC11420954, “Structural and Functional Basis of GenB2 Isomerase Activity from Gentamicin Biosynthesis” (ACS Chemical Biology, 2024).

Key:
[1] = molecular target: T1, GenB2 (Micromonospora echinospora, UniProt Q70KE6); assay: X-ray crystal structure of the holo enzyme; assay type: binding; conditions: copurified; coenzyme site at the dimer interface, no Schiff base with Lys227; pH 6.0
T1 construct: gene gacE; full length in pET28a, E. coli BL21(DE3), nickel IMAC and gel filtration; plasmid carries an extra 57 nucleotides at the 5' end; homodimer
T1 sequence (Q70KE6 entry or part of it): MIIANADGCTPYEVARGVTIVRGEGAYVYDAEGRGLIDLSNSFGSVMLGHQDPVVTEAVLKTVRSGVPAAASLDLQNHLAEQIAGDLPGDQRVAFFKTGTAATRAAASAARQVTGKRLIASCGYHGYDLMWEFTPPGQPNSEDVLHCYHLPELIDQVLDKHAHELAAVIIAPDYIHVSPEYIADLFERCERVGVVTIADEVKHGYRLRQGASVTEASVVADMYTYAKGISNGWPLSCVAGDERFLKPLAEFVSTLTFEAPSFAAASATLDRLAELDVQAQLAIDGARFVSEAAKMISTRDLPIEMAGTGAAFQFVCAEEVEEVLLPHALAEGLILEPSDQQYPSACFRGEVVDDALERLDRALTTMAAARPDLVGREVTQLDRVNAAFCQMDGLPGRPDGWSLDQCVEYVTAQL

[2] = molecular target: T1, GenB2; assay: X-ray crystal structure of the complex; conditions: ternary complex with PMP; substrate-binding site; at least 100 mM ligand, pH 6.0, 18 °C
[3] = molecular target: GenB2 (Micromonospora echinospora); assay: not stated; GenB2 in solution; the method is not told
[4] = molecular target: GenB2 (Micromonospora echinospora); assay: crystal structure; holo GenB2 (PMP) and its complexes with G418 or gentamicin X2; space group C222(1), a single protomer in the asymmetric unit, dimer obtained by a symmetry operation; 0.1 M PIPES pH 6.0, 1 M NaCl, 29% PEG 4000, 30% 6-aminohexanoic acid, 18 °C
[5] = molecular target: T1, GenB2; assay: epimerisation to gentamicin C2a, HPLC; assay type: biochemical; conditions: 200 μM substrate, 20 μM enzyme, 50 mM Tris-HCl pH 8.0, 30 °C, overnight
[6] = molecular target: T1, GenB2; assay: epimerisation to gentamicin C2, HPLC; assay type: biochemical; conditions: 200 μM substrate, 20 μM enzyme, 50 mM Tris-HCl pH 8.0, 30 °C, overnight

## Cc1ncc(COP(=O)(O)O)c(CN)c1O [pyridoxamine 5-phosphate]
[1]
  X-ray crystal structure of the holo enzyme: Each dimer of GenB2 has two PMP molecules bound at the interfaces between the protomers

## CN[C@@H]1[C@@H](O)[C@@H](O[C@@H]2[C@@H](O)[C@H](O[C@H]3O[C@H](CO)[C@@H](O)[C@H](O)[C@H]3N)[C@@H](N)C[C@H]2N)OC[C@]1(C)O (stereo in doubt) [gentamicin X2]
[2]
  X-ray crystal structure of the complex: we have obtained the structure of GenB2 in complex with gentamicin G418 and gentamicin X2

## GenB2 (enzyme)
[3]
  stoichiometry N: 2
[4]
  stoichiometry N: 2

## CN[C@@H]1[C@@H](O)[C@@H](O[C@@H]2[C@@H](O)[C@H](O[C@H]3O[C@H]([C@@H](C)N)CC[C@H]3N)[C@@H](N)C[C@H]2N)OC[C@]1(C)O [gentamicin C2]
[5]
  epimerisation to gentamicin C2a, HPLC: conversion of gentamicin C2 into C2a or C2a into C2

## CN[C@@H]1[C@@H](O)[C@@H](O[C@@H]2[C@@H](O)[C@H](O[C@H]3O[C@H]([C@H](C)N)CC[C@H]3N)[C@@H](N)C[C@H]2N)OC[C@]1(C)O [gentamicin C2a]
[6]
  epimerisation to gentamicin C2, HPLC: wild-type GenB2 was able to perform a high ratio of conversion
